Laboratory results as given in publication PMC11638483, “Naringenin chalcone carbon double-bond reductases mediate dihydrochalcone biosynthesis in apple leaves” (Plant Physiology, 2024).

Experiments:
MdNCR1b [1] = test: product formation assay, varied naringenin chalcone […]; assay type: biochemical, Malus domestica; conditions: 400 µM NADPH, Bis-Tris propane 0.1 M, pH 3.0, 30 °C, 30 min; read-out: Km (apparent)
MdNCR1b [2] = test: product formation assay, varied NADPH […]; assay type: biochemical, Malus domestica; conditions: 100 µM naringenin chalcone, Bis-Tris propane 0.1 M, pH 3.0, 30 °C, 30 min

SMILES	Km (MdNCR1b [1]) [µM]	Km (MdNCR1b [2]) [µM]
O=C(/C=C/c1ccc(O)cc1)c1c(O)cc(O)cc1O [compound 1, 2ʹ,4,4ʹ,6ʹ-tetrahydroxychalcone]	9.9 ± 2.6	
NC(=O)C1=CN([C@@H]2O[C@H](COP(=O)(O)OP(=O)(O)OC[C@H]3O[C@@H](n4cnc5c(N)ncnc54)[C@H](OP(=O)(O)O)[C@@H]3O)[C@@H](O)[C@H]2O)C=CC1 [NADPH]		23.1 ± 9.4
